Assay results published in US9018175B2 (Takeda GmbH, priority 2009, dated 2015).

What was measured:
[1] = biological target: T1, PDE4B1 (Homo sapiens, UniProt Q07343); assay: Inhibition of PDE4B1 activity (SPA, [3H]cAMP); assay type: biochemical; conditions: recombinant PDE4B1 expressed in SF21 cells; 0.5 pM [sic] cAMP; values given as bins; read-out: PDE4B1 inhibitory values measured as −logIC50 (converted)
T1 construct: made in house; host or cells: SF21 insect cells (baculovirus; pCR-Bac vector)
T1 sequence (Q07343 whole entry): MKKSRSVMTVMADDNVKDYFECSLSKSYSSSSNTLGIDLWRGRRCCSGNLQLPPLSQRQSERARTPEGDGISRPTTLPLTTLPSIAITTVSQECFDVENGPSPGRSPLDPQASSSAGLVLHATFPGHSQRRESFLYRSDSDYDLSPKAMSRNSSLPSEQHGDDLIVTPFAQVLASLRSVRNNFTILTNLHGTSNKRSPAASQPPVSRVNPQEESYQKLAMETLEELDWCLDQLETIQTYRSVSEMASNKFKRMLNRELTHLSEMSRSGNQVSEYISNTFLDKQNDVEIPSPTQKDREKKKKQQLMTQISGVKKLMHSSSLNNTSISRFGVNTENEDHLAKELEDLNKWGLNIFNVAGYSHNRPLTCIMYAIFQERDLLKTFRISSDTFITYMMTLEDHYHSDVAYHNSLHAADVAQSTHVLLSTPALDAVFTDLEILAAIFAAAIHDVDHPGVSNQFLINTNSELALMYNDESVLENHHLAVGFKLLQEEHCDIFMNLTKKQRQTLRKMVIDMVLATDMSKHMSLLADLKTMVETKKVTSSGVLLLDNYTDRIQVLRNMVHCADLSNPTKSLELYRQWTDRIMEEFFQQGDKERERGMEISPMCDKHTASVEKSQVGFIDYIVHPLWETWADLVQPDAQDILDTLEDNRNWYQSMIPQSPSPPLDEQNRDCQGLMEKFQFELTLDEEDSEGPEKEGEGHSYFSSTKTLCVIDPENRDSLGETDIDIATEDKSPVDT
How it was run: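 Recombinant human PDE4B1 (Sf21 cell 1000 g supernatant) in 20 mM Tris pH 7.4, 0.1 mg/ml BSA, 5 mM Mg2+, […] with [3H]cAMP tracer, enzyme giving 10-20% conversion. After 5 min preincubation at 37 °C, 15 min reaction, stopped by SPA beads with IBMX; IC50 by non-linear regression.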

[2] = biological target: T2, human PDE5 (Homo sapiens, UniProt O76074); assay: Inhibition of PDE5 activity (SPA, [3H]cGMP, platelet lysate); assay type: biochemical; conditions: PDE5 from human platelet lysate; values given as bins; read-out: PDE5A inhibitory values measured as −logIC50 (converted)
T2 construct: from tissue; host or cells: human platelets from fresh donor blood (10,000 g supernatant of sonicated platelets)
How it was run: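 Human platelet lysate served as PDE5 source, with 1 μM motapizone and 10 nM PDE2 inhibitor present; […] plus [3H]cGMP tracer, pH 7.4, 5 mM Mg2+, 10-20% substrate turnover. After 5 min preincubation, 15 min at 37 °C, stopped with SPA beads and IBMX; IC50 by non-linear regression.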

[3] = tested on: bleomycin-induced lung fibrosis; conditions: in-vivo, bleomycin-induced lung fibrosis model in mice (Cortijo et al. 2009); cited from earlier work
[4] = tested on: bleomycin-induced pulmonary fibrosis and pulmonary hypertension; conditions: through inhibition of ROS generation and RhoA/Rho kinase activation (Hemnes et al. 2008); cited from earlier work
[5] = tested on: patients with pulmonary fibrosis; conditions: open-label trials (Ghofrani 2002; Collard 2007); cited from earlier work

IC50 [1] [nM]	IC50 [2] [nM]	SMILES	also measured
< 1	> 100	CCOc1cc2c(cc1OC)C(c1ccc(C(=O)N3CCC(n4c(=O)c5sc(-c6ccccc6)cc5n(Cc5ncn(C)n5)c4=O)CC3)cc1)=N[C@@H]1CCSC[C@H]21 [Example 52, 3-[1-({4-[(4aR,10bR)-9-ethoxy-8-methoxy-3,4,4a,10b-tetrahydro-1H-thiopyrano[4,3-c]isoquinolin-6-yl]phenyl}carbonyl)piperidin-4-yl]-1-[(1-methyl-1H-1,2,4-triazol-3-yl)methyl]-6-phenylthieno[3,2-d]pyrimidine-2,4(1H,3H)-dione]	–
< 1	> 100	CCOc1cc2c(cc1OC)C(c1ccc(C(=O)N3CCC(n4c(=O)c5sc(-c6ccccc6)cc5n(Cc5nccn5C)c4=O)CC3)cc1)=N[C@@H]1CCSC[C@H]21 [Example 53, 3-[1-({4-[(4aR,10bR)-9-ethoxy-8-methoxy-3,4,4a,10b-tetrahydro-1H-thiopyrano[4,3-c]isoquinolin-6-yl]phenyl}carbonyl)piperidin-4-yl]-1-[(1-methyl-1H-imidazol-2-yl)methyl]-6-phenylthieno[3,2-d]pyrimidine-2,4(1H,3H)-dione]	–
< 1	> 100	CCOc1cc2c(cc1OC)C(c1ccc(C(=O)N3CCC(n4c(=O)c5sc(-c6ccccc6)cc5n(Cc5ocnc5C)c4=O)CC3)cc1)=N[C@@H]1CCSC[C@H]21 [Example 54, 3-[1-({4-[(4aR,10bR)-9-ethoxy-8-methoxy-3,4,4a,10b-tetrahydro-1H-thiopyrano[4,3-c]isoquinolin-6-yl]phenyl}carbonyl)piperidin-4-yl]-1-[(4-methyl-1,3-oxazol-5-yl)methyl]-6-phenylthieno[3,2-d]pyrimidine-2,4(1H,3H)-dione]	–
1 to 10	> 100	CCOc1cc2c(cc1OC)C(c1ccc(C(=O)N3CCC(n4c(=O)c5sc(-c6ccccc6)cc5n(Cc5sccc5C)c4=O)CC3)cc1)=N[C@@H]1CCSC[C@H]21 [Example 56, 3-[1-({4-[(4aR,10bR)-9-ethoxy-8-methoxy-3,4,4a,10b-tetrahydro-1H-thiopyrano[4,3-c]isoquinolin-6-yl]phenyl}carbonyl)piperidin-4-yl]-1-[(3-methylthiophen-2-yl)methyl]-6-phenylthieno[3,2-d]pyrimidine-2,4(1H,3H)-dione]	–
1 to 10	10 to 100	CCOc1cc2c(cc1OC)C(c1ccc(C(=O)N3CCC(n4c(=O)c5sc(-c6ccccc6)cc5n(Cn5nnc(CC)n5)c4=O)CC3)cc1)=N[C@@H]1CCSC[C@H]21 [Example 57, 3-[1-({4-[(4aR,10bR)-9-ethoxy-8-methoxy-3,4,4a,10b-tetrahydro-1H-thiopyrano[4,3-c]isoquinolin-6-yl]phenyl}carbonyl)piperidin-4-yl]-1-[(5-ethyl-2H-tetrazol-2-yl)methyl]-6-phenylthieno[3,2-d]pyrimidine-2,4(1H,3H)-dione]	–
> 10	< 10	CCn1nnc(Cn2c(=O)n(C3CCN(C(=O)c4ccc(C5=N[C@@H]6CCSC[C@@H]6c6cc(OC)c(OC)cc65)cc4)CC3)c(=O)c3sc(-c4ccccc4)cc32)n1 [Example 59, 3-[1-({4-[(4aR,10bR)-8,9-dimethoxy-3,4,4a,10b-tetrahydro-1H-thiopyrano[4,3-c]isoquinolin-6-yl]phenyl}carbonyl)piperidin-4-yl]-1-[(2-ethyl-2H-tetrazol-5-yl)methyl]-6-phenylthieno[3,2-d]pyrimidine-2,4(1H,3H)-dione]	–

The next lines start with the compound.

SMILES	IC50 [1] [nM]	IC50 [2] [nM]	also measured
CCOc1cc2c(cc1OC)C(c1ccc(C(=O)N3CCC(n4c(=O)c5sc(-c6ccc7c(c6)OCO7)cc5n(Cc5nc(CC)no5)c4=O)CC3)cc1)=N[C@@H]1CCSC[C@H]21 [Example 46, 6-(1,3-benzodioxol-5-yl)-3-[1-({4-[(4aR,10bR)-9-ethoxy-8-methoxy-3,4,4a,10b-tetrahydro-1H-thiopyrano[4,3-c]isoquinolin-6-yl]phenyl}carbonyl)piperidin-4-yl]-1-[(3-ethyl-1,2,4-oxadiazol-5-yl)methyl]thieno[3,2-d]pyrimidine-2,4(1H,3H)-dione]	1 to 10	< 10	–
CCOc1cc2c(cc1OC)C(c1ccc(C(=O)N3CCC(n4c(=O)c5sc(-c6ccc(F)cc6)cc5n(Cc5nc(CC)no5)c4=O)CC3)cc1)=N[C@@H]1CCSC[C@H]21 [Example 47, 3-[1-({4-[(4aR,10bR)-9-ethoxy-8-methoxy-3,4,4a,10b-tetrahydro-1H-thiopyrano[4,3-c]isoquinolin-6-yl]phenyl}carbonyl)piperidin-4-yl]-1-[(3-ethyl-1,2,4-oxadiazol-5-yl)methyl]-6-(4-fluorophenyl)thieno[3,2-d]pyrimidine-2,4(1H,3H)-dione]	1 to 10	< 10	–
CCOc1cc2c(cc1OC)C(c1ccc(C(=O)N3CCC(n4c(=O)c5sc(-c6ccccc6F)cc5n(Cc5nc(CC)no5)c4=O)CC3)cc1)=N[C@@H]1CCSC[C@H]21 [Example 48, 3-[1-({4-[(4aR,10bR)-9-ethoxy-8-methoxy-3,4,4a,10b-tetrahydro-1H-thiopyrano[4,3-c]isoquinolin-6-yl]phenyl}carbonyl)piperidin-4-yl]-1-[(3-ethyl-1,2,4-oxadiazol-5-yl)methyl]-6-(2-fluorophenyl)thieno[3,2-d]pyrimidine-2,4(1H,3H)-dione]	1 to 10	< 10	–
CCOc1cc2c(cc1OC)C(c1ccc(C(=O)N3CCC(n4c(=O)c5sc(-c6ccc(F)c(F)c6)cc5n(Cc5nc(CC)no5)c4=O)CC3)cc1)=N[C@@H]1CCSC[C@H]21 [Example 49, 6-(3,4-difluorophenyl)-3-[1-({4-[(4aR,10bR)-9-ethoxy-8-methoxy-3,4,4a,10b-tetrahydro-1H-thiopyrano[4,3-c]isoquinolin-6-yl]phenyl}carbonyl)piperidin-4-yl]-1-[(3-ethyl-1,2,4-oxadiazol-5-yl)methyl]thieno[3,2-d]pyrimidine-2,4(1H,3H)-dione]	1 to 10	< 10	–
CCOc1cc2c(cc1OC)C(c1ccc(C(=O)N3CCC(n4c(=O)c5sc(-c6ccccc6)cc5n(Cc5nc(CCCOC)no5)c4=O)CC3)cc1)=N[C@@H]1CCSC[C@H]21 [Example 50, 3-[1-({4-[(4aR,10bR)-9-ethoxy-8-methoxy-3,4,4a,10b-tetrahydro-1H-thiopyrano[4,3-c]isoquinolin-6-yl]phenyl}carbonyl)piperidin-4-yl]-1-{[3-(3-methoxypropyl)-1,2,4-oxadiazol-5-yl]methyl}-6-phenylthieno[3,2-d]pyrimidine-2,4(1H,3H)-dione]	< 1	10 to 100	–
CCCOCc1noc(Cn2c(=O)n(C3CCN(C(=O)c4ccc(C5=N[C@@H]6CCSC[C@@H]6c6cc(OCC)c(OC)cc65)cc4)CC3)c(=O)c3sc(-c4ccccc4)cc32)n1 [Example 51, 3-[1-({4-[(4aR,10bR)-9-ethoxy-8-methoxy-3,4,4a,10b-tetrahydro-1H-thiopyrano[4,3-c]isoquinolin-6-yl]phenyl}carbonyl)piperidin-4-yl]-6-phenyl-1-{[3-(propoxymethyl)-1,2,4-oxadiazol-5-yl]methyl}thieno[3,2-d]pyrimidine-2,4(1H,3H)-dione]	< 1	> 100	–
CCOc1cc2c(cc1OC)C(c1ccc(C(=O)N3CCC(n4c(=O)c5sc(-c6ccccc6)cc5n(Cc5ccc(CC)s5)c4=O)CC3)cc1)=N[C@@H]1CCSC[C@H]21 [Example 55, 3-[1-({4-[(4aR,10bR)-9-ethoxy-8-methoxy-3,4,4a,10b-tetrahydro-1H-thiopyrano[4,3-c]isoquinolin-6-yl]phenyl}carbonyl)piperidin-4-yl]-1-[(5-ethylthiophen-2-yl)methyl]-6-phenylthieno[3,2-d]pyrimidine-2,4(1H,3H)-dione]	1 to 10	10 to 100	–
CCOc1cc2c(cc1OC)C(c1ccc(C(=O)N3CCC(n4c(=O)c5sc(-c6ccccc6)cc5n(Cc5nnc(C(C)(C)C)o5)c4=O)CC3)cc1)=N[C@@H]1CCSC[C@H]21 [Example 58, 1-[(5-tert-butyl-1,3,4-oxadiazol-2-yl)methyl]-3-[1-({4-[(4aR,10bR)-9-ethoxy-8-methoxy-3,4,4a,10b-tetrahydro-1H-thiopyrano[4,3-c]isoquinolin-6-yl]phenyl}carbonyl)piperidin-4-yl]-6-phenylthieno[3,2-d]pyrimidine-2,4(1H,3H)-dione]	1 to 10	> 100	–
O=C(Nc1c(Cl)cncc1Cl)c1ccc(OC(F)F)c(OCC2CC2)c1 [roflumilast]	–	–	fibrosis development [3]: inhibit fibrosis development
CCCc1nn(C)c2c(=O)[nH]c(-c3cc(S(=O)(=O)N4CCN(C)CC4)ccc3OCC)nc12 [sildenafil]	–	–	bleomycin-induced pulmonary fibrosis and pulmonary hypertension [4]: attenuates bleomycin-induced pulmonary fibrosis and pulmonary hypertension; exercise tolerance [5]: increases exercise tolerance; lung hemodynamic (vascular resistance and ventilation/perfusion matching) [5]: improves lung hemodynamic
